Patent publication US5767291A, “Phenyl heterocycles as cox-2 inhibitors” (Merck Frosst Canada, Inc., priority 1996, dated 1998)
Read-outs that look alike come from different tables or passages of the source.

Molecular target: T1, cyclooxygenase-2 (COX-2) (Homo sapiens, UniProt P35354)
T1 construct: human osteosarcoma 143 cells (which specifically express cyclooxygenase-2); endogenous in cells; host or cells: human osteosarcoma 143 cells (whole cells, and microsomes prepared from them)
T1 sequence (P35354 18-604): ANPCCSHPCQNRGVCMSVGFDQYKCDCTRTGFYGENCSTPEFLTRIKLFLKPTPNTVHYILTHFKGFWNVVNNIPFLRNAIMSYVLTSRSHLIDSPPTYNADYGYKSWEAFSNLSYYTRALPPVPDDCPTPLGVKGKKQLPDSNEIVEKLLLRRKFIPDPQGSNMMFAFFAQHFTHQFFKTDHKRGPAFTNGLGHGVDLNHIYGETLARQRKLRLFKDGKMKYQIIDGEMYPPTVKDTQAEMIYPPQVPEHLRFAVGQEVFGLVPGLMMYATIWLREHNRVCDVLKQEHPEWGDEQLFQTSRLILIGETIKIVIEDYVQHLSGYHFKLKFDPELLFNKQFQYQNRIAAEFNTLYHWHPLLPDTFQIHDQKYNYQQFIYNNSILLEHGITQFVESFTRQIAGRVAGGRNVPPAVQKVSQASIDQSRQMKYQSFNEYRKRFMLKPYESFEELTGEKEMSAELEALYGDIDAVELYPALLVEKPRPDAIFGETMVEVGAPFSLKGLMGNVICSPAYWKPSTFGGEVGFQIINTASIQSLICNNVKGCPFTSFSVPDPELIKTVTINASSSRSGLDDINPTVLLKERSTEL
Assay: Whole cell cyclooxygenase assay, COX-2 (PGE2 synthesis in response to arachidonic acid, radioimmunoassay), human osteosarcoma 143 cells
Assay type: cell-based
Conditions: read-out: Whole Cells COX-2 % inhib.; for inhibition at 0.01 µM: 10 nM; for inhibition at 0.1 µM: 100 nM; for inhibition at 0.08 µM: 80 nM; for inhibition at 0.04 µM: 40 nM
Experimental: Compounds were tested as inhibitors of cyclooxygenase activity in whole cell and microsomal cyclooxygenase assays. Both of these assays measured prostaglandin E2 (PGE2) synthesis in response to arachidonic acid, using a radioimmunoassay. Cells used for whole cell assays, and from which microsomes were prepared for microsomal assays, were human osteosarcoma 143 cells (which specifically express cyclooxygenase-2) and human U-937 cells (which specifically express cyclooxygenase-1). In these assays, 100% activity is defined as the difference between prostaglandin E2 synthesis in the absence and presence of arachidonate addition.

SMILES	inhibition at 0.01 µM	inhibition at 0.02 µM (20 nM)	inhibition at 0.16 µM (160 nM)	inhibition at 0.04 µM	also measured
CS(=O)(=O)c1ccc(-c2cnsc2-c2ccc(F)cc2)cc1 [Example 8, 4-(4-(Methylsulfonyl)phenyl)-5-(4-fluorophenyl)-isothiazole]	41%	–	–	–	inhibition at 0.1 µM: 89%
CC1(C)OC(=O)C(c2ccc(F)cc2)=C1c1ccc(S(C)(=O)=O)cc1 [Example 12, 5,5-Dimethyl-3-(4-fluorophenyl)-4-(4-methylsulfonylphenyl)-2-(5H)-furanone]	–	–	–	–	inhibition at 0.1 µM: 54%
CS(=O)(=O)c1ccc(C2=C(c3ccc(F)cc3F)C(=O)OC2)cc1 [Example 15, 3-(2,4-Difluorophenyl)-4-(4-(methylsulfonyl)phenyl)-2-(5H)-furanone]	–	39%	95%	–	inhibition at 0.08 µM: 76%
CS(=O)(=O)c1ccc(C2=C(c3ccc(F)c(F)c3)C(=O)OC2)cc1 [Example 16, 3-(3,4-Difluorophenyl)-4-(4-(methylsulfonyl)phenyl)-2-(5H)-furanone]	–	41%	85%	50%	–
CS(=O)(=O)c1ccc(C2=C(c3c(F)cccc3F)C(=O)OC2)cc1 [Example 17, 3-(2,6-Difluorophenyl)-4-(4-(methylsulfonyl)phenyl)-2-(5H)-furanone]	–	–	77%	41%	–
CS(=O)(=O)c1ccc(C2=C(c3cc(F)ccc3F)C(=O)OC2)cc1 [Example 18, 3-(2,5-Difluorophenyl)-4-(4-(methylsulfonyl)phenyl)-2-(5H)-furanone]	–	–	58%	24%	–
CS(=O)(=O)c1ccc(C2=C(c3cc(F)cc(F)c3)C(=O)OC2)cc1 [Example 19, 3-(3,5-Difluorophenyl)-4-(4-(methylsulfonyl)phenyl)-2-(5H)-furanone]	–	–	59%	21%	–
CS(=O)(=O)c1ccc(C2=C(c3ccc(Br)cc3)C(=O)OC2)cc1 [Example 20, 3-(4-Bromophenyl)-4-(4-(methylsulfonyl)phenyl)-2-(5H)-furanone]	70%	–	–	91%	–
CS(=O)(=O)c1ccc(C2=C(c3ccc(Cl)cc3)C(=O)OC2)cc1 [Example 21, 3-(4-Chlorophenyl)-4-(4-(methylsulfonyl)phenyl)-2-(5H)-furanone]	50%	–	–	94%	–
COc1ccc(C2=C(c3ccc(S(C)(=O)=O)cc3)COC2=O)cc1 [Example 22, 3-(4-Methoxyphenyl)-4-(4-(methylsulfonyl)phenyl)-2-(5H)-furanone]	–	39%	98%	–	–
CS(=O)(=O)c1ccc(C2=C(c3ccccc3)C(=O)OC2)cc1 [Example 23, 3-(Phenyl)-4-(4-(methylsulfonyl)phenyl)-2-(5H)-furanone]	–	–	–	–	inhibition at 0.02 µM: 50%; inhibition at 0.16 µM: 88%
CS(=O)(=O)c1ccc(C2=C(c3ccccc3Cl)C(=O)OC2)cc1 [Example 24, 3-(2-Chlorophenyl)-4-(4-(methylsulfonyl)phenyl)-2-(5H)-furanone]	–	–	78%	43%	–
CS(=O)(=O)c1ccc(C2=C(c3ccc(F)cc3Br)C(=O)OC2)cc1 [Example 25, 3-(2-Bromo-4-fluorophenyl)-4-(4-(methylsulfonyl)phenyl)-2-(5H)-furanone]	–	–	40%	–	–
CS(=O)(=O)c1ccc(C2=C(c3ccc(Cl)cc3Br)C(=O)OC2)cc1 [Example 26, 3-(2-Bromo-4-Chlorophenyl)-4-(4-(methylsulfonyl)phenyl)-2-(5H)-furanone]	–	–	39%	–	inhibition at 0.08 µM: 27%
CS(=O)(=O)c1ccc(C2=C(c3ccc(Cl)cc3F)C(=O)OC2)cc1 [Example 27, 3-(4-Chloro-2-fluorophenyl)-4-(4-(methylsulfonyl)phenyl)-2-(5H)-furanone]	–	38%	97%	–	–
CS(=O)(=O)c1ccc(C2=C(c3ccc(F)c(Br)c3)C(=O)OC2)cc1 [Example 28, 3-(3-Bromo-4-fluorophenyl)-4-(4-(methylsulfonyl)phenyl)-2-(5H)-furanone]	–	48%	69%	–	–

SMILES	inhibition at 0.01 µM	inhibition at 0.02 µM (20 nM)	inhibition at 0.16 µM (160 nM)	inhibition at 0.04 µM	also measured
CS(=O)(=O)c1ccc(C2=C(c3cccc(Cl)c3)C(=O)OC2)cc1 [Example 29, 3-(3-Chlorophenyl)-4-(4-(methylsulfonyl)phenyl)-2-(5H)-furanone]	–	78%	85%	–	–
CS(=O)(=O)c1ccc(C2=C(c3ccc(F)cc3Cl)C(=O)OC2)cc1 [Example 30, 3-(2-Chloro-4-fluorophenyl)-4-(4-(methylsulfonyl)phenyl)-2-(5H)-furanone]	–	–	30%	–	–
CS(=O)(=O)c1ccc(C2=C(c3ccc(Cl)cc3Cl)C(=O)OC2)cc1 [Example 31, 3-(2,4-Dichlorophenyl)-4-(4-(methylsulfonyl)phenyl)-2-(5H)-furanone]	–	49%	87%	–	–
CS(=O)(=O)c1ccc(C2=C(c3ccc(Cl)c(Cl)c3)C(=O)OC2)cc1 [Example 32, 3-(3,4-Dichlorophenyl)-4-(4-(methylsulfonyl)phenyl)-2-(5H)-furanone]	73%	–	–	92%	inhibition at 0.005 µM (5 nM): 43%; inhibition at 0.08 µM: 99%
CS(=O)(=O)c1ccc(C2=C(c3c(Cl)cccc3Cl)C(=O)OC2)cc1 [Example 33, 3-(2,6-Dichlorophenyl)-4-(4-(methylsulfonyl)phenyl)-2-(5H)-furanone]	–	–	6%	–	–
CS(=O)(=O)c1ccc(C2=C(c3ccc(F)c(Cl)c3)C(=O)OC2)cc1 [Example 34, 3-(3-Chloro-4-fluorophenyl)-4-(4-(methylsulfonyl)phenyl)-2-(5H)-furanone]	30%	–	102%	80%	–
CS(=O)(=O)c1ccc(C2=C(c3ccc(C(F)(F)F)cc3)C(=O)OC2)cc1 [Example 35, 3-(4-Trifluoromethylphenyl)-4-(4-(methylsulfonyl)phenyl)-2-(5H)-furanone]	–	32%	83%	57%	–
COc1ccc(C2=C(c3ccc(S(C)(=O)=O)cc3)COC2=O)cc1F [Example 36, 3-(3-Fluoro-4-methoxyphenyl)-4-(4-(methylsulfonyl)phenyl)-2-(5H)-furanone]	11%	–	89%	50%	–
COc1ccc(C2=C(c3ccc(S(C)(=O)=O)cc3)COC2=O)cc1Cl [Example 37, 3-(3-Chloro-4-methoxyphenyl)-4-(4-(methylsulfonyl)phenyl)-2-(5H)-furanone]	53%	–	93%	82%	–
COc1ccc(C2=C(c3ccc(S(C)(=O)=O)cc3)COC2=O)cc1Br [Example 38, 3-(3-Bromo-4-methoxyphenyl)-4-(4-(methylsulfonyl)phenyl)-2-(5H)-furanone]	25%	–	88%	63%	–
CS(=O)(=O)c1ccc(C2=C(c3ccccc3F)C(=O)OC2)cc1 [Example 39, 3-(2-Fluorophenyl)-4-(4-(methylsulfonyl)phenyl)-2-(5H)-furanone]	17%	–	84%	–	–
CSc1ccc(C2=C(c3ccc(S(C)(=O)=O)cc3)COC2=O)cc1 [Example 40, 3-(4-Methylthiophenyl)-4-(4-(methylsulfonyl)phenyl)-2-(5H)-furanone]	43%	–	96%	72%	–
CS(=O)(=O)c1ccc(C2=C(c3c(F)cccc3Cl)C(=O)OC2)cc1 [Example 42, 3-(2-Chloro-6-fluorophenyl)-4-(4-(methylsulfonyl)phenyl)-2-(5H)-furanone]	–	10%	44%	–	–
Cc1ccc(C2=C(c3ccc(S(C)(=O)=O)cc3)COC2=O)cc1Br [Example 43, 3-(3-Bromo-4-methylphenyl)-4-(4-(methylsulfonyl)phenyl)-2-(5H)-furanone]	78%	–	–	101%	–
CS(=O)(=O)c1ccc(C2=C(c3ccc(Br)cc3F)C(=O)OC2)cc1 [Example 44, 3-(4-Bromo-2-fluorophenyl)-4-(4-(methylsulfonyl)phenyl)-2-(5H)-furanone]	–	14%	106%	55%	–
CS(=O)(=O)c1ccc(C2=C(c3ccc(Br)c(Br)c3)C(=O)OC2)cc1 [Example 45, 3-(3,4-Dibromophenyl)-4-(4-(methylsulfonyl)phenyl)-2-(5H)-furanone]	16%	–	101%	61%	–
